Measured values as given in patent US20080287398A1, “COLD MENTHOL RECEPTOR-1 ANTAGONISTS” (priority 2007, published 2008).
Values joined by “and” are separate entries in the source; they are usually repeats but may differ in a detail not shown here. Equal entries are not always repeated. Where two headings read alike, the source gives them in different places.

Key:
[1] = tested on: Sprague-Dawley rats; assay: CFA-induced paw radiant heat hypersensitivity; assay type: in vivo, rat; conditions: for % Reversal: rat, 30 mg/kg p.o.; for inhibition in vivo at 30 mg/kg / ED50: Rattus norvegicus; for inhibition in vivo at 30 mg/kg: read-out: % Reversal
Description: Intraplantar injection of Complete Freund's Adjuvant (CFA) in rodents results in a long-lasting inflammatory reaction, characterized by a pronounced hypersensitivity to both thermal and mechanical stimuli. This hypersensitivity peaks between 24-72 hours following injection and can last for several weeks. […] This paradigm also may be conducted with a multiple dosing or a prophylactic dosing regime designed to alter the course of hyperalgesia development. This test predicts the analgesic, anti-allodynic and antihyperalgesic effect of numerous effective clinical agents, including NSAIDS such as acetaminophen, aspirin and ibuprofen, and opioids such as morphine.
Each rat was placed in a test chamber on a warm glass surface and allowed to acclimate for approximately 10 minutes. A radiant thermal stimulus (beam of light) was then focused through the glass onto the plantar surface of each hind paw in turn. The thermal stimulus was automatically shut off by a photoelectric relay when the paw was moved or when the cut-off time was reached (20 seconds for radiant heat at ˜5 Amps). An initial (baseline) response latency to the thermal stimulus was recorded for each animal prior to the injection of CFA. Twenty-four hours following intraplantar CFA injection, the response latency of the animal to the thermal stimulus was then re-evaluated and compared to the animal's baseline response time. […] Immediately following the post-CFA latency assessment, test compound or vehicle (usually Solutol, hydroxypropyl methylcellulose, hydroxypropyl beta-cyclodextrin or PEG-400) was administered i.p. or p.o. to rats. […] The percent reversal (% R) of hypersenstivitiy was calculated according to the following formula:
% Reversal=(Treatment Response-CFA Response)/(Baseline Response-CFA Response)×100.

[2] = target: T1, canine TRPM8 (Canis lupus familiaris, UniProt Q1A7N1); assay: In vitro canine TRPM8 functional assay (Ca2+-sensitive dye, FLIPR/FDSS, icilin activation); assay type: cell-based; conditions: HEK293 cells expressing canine TRPM8, icilin activation; for % I (0.5 μM): 0.5 μM compound; for IC50: eight-point dose-response; for inhibition at 1 µM: HEK293, read-out: % I (1 μM), 1 μM compound; for % I (1 μM): 1 μM compound
T1 construct: expressed in transfected cells
T1 sequence (Q1A7N1 1-1104): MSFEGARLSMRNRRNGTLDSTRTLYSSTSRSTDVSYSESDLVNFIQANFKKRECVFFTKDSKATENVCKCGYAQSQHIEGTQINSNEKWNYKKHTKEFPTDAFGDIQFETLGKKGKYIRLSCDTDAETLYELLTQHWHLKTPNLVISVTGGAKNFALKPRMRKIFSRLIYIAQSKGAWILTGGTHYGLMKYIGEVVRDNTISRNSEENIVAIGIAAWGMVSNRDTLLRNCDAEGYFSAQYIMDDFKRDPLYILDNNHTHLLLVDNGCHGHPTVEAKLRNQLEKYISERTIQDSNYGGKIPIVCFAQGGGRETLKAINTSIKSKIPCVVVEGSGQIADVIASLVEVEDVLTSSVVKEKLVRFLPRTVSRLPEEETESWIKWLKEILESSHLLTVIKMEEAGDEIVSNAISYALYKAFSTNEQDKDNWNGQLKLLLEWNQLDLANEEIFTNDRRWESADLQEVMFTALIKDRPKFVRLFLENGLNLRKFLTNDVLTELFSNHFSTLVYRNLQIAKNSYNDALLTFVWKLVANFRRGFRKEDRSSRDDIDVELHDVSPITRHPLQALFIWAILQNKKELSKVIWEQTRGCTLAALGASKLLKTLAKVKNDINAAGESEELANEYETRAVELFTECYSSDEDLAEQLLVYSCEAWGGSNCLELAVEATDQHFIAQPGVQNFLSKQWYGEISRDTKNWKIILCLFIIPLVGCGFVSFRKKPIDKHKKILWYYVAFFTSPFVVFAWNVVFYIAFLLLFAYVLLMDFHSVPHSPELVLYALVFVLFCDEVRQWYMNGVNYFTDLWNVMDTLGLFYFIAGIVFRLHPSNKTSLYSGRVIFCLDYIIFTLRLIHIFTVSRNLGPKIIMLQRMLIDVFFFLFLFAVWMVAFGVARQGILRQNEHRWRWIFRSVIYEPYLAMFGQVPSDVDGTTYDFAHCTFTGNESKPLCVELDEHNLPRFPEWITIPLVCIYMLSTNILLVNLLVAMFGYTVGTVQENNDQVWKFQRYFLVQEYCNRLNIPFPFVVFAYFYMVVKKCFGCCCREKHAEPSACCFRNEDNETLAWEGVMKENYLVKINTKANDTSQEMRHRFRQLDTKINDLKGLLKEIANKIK
In short: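 Icilin challenge (final concentration producing ~80% of maximal response) followed a 5 min compound exposure in canine TRPM8-HEK293 cells dye-loaded with Calcium 3. Intracellular Ca2+ was read on FLIPR/FDSS. EC50 and IC50 values came from nonlinear sigmoidal dose-response fits of basal-subtracted, percent-of-maximum data averaged over quadruplicates.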

[3] = HEK293, 0.5 μM compound, read-out: % I (0.5 μM)

Compound	% I (0.5 μM) [2]	IC50 ([2]; read-out: IC50)	other results
CCOP(=O)(OCC)C(Cc1ccc(F)c(Cl)c1)c1sc2ccccc2c1Br (racemic) [Cpd 244]	103%	0.028 µM	% Reversal ([1]; time 2 h (printed 2 h or 2)): 45%
CCOP(=O)(OCC)C(Cc1ccc(F)c(C(F)(F)F)c1)c1sc2ccccc2c1Cl (racemic) [Cpd 298]	99%	0.085 µM	% Reversal ([1]; time 1 h): 20%
CCOP(=O)(OCC)C(Cc1ccc(SC)cc1)c1sc2ccccc2c1Cl (racemic) [Cpd 299]	101%	0.141 µM	% Reversal ([1]; time 1 h): 23%
CC(C)OP(=O)(OC(C)C)C(Cc1ccc(F)c(F)c1)c1sc2ccccc2c1Cl (stereo not drawn) [Cpd 12, [1-(3-Chloro-benzo[b]thiophen-2-yl)-2-(3,4-difluoro-phenyl)-ethyl]-phosphonic acid diisopropyl ester]	–	–	inhibition in vivo at 30 mg/kg ([1]; ip, 1 h): 105%; inhibition at 1 µM [2]: 100%; IC50 ([2]; IC50 (μM)): 0.043 µM and 0.13 µM
CCOP(=O)(OCC)C(Cc1ccc(F)c(F)c1)c1sc2ccccc2c1Br (stereo not drawn) [Cpd 127, [1-(3-Bromo-benzo[b]thiophen-2-yl)-2-(3,4-difluoro-phenyl)-ethyl]-phosphonic acid dethyl ester]	–	–	ED50 ([1]; po): 5.2 mg/kg; inhibition in vivo at 30 mg/kg ([1]; po, 1 h): 88%; ED50 ([1]; po, 1 h, read-out: oral ED50): 5.2 mg/kg; inhibition at 1 µM [2]: 100%; IC50 ([2]; IC50 (μM)): 0.052 µM
CCOP(=O)(OCC)C(Cc1cccc(Cl)c1)c1sc2ccccc2c1Br (stereo not drawn) [Cpd 137, [1-(3-Bromo-benzo[b]thiophene-2-yl)2-(3-chloro-phenyl)-ethyl]-phosphonic acid diethyl ester]	–	–	inhibition in vivo at 30 mg/kg ([1]; po, 1 h): 34%; inhibition at 0.5 µM ([2]; HEK293, read-out: % I (0.5 μM), 0.5 μM compound): 102%; IC50 ([2]; IC50 (μM)): 0.024 µM
CC(C)OP(=O)(OC(C)C)C(Cc1ccc(Cl)c(F)c1)c1sc2ccccc2c1Br (stereo not drawn) [Cpd 190]	104%	0.102 µM	% Reversal ([1]; time 1 h): 45%
CC(C)OP(=O)(OC(C)C)C(Cc1ccc(F)cc1)c1sc2ccccc2c1Br (stereo not drawn) [Cpd 197]	102%	–	% Reversal ([1]; time 2 h (printed 2 h or 2)): 23%; % I (1 μM) [2]: 100%
CCOP(=O)(OCC)C(Cc1ccc(OC)cc1)c1sc2ccccc2c1Br (stereo not drawn) [Cpd 321]	102%	0.043 µM	–
CCOP(=O)(OCC)C(Cc1cc(O)cc(O)c1)c1sc2ccccc2c1Br (stereo not drawn) [Cpd 322]	45%	–	–
CCOP(=O)(OCC)C(Cc1ccccc1O)c1sc2ccccc2c1Br (stereo not drawn) [Cpd 323]	104%	0.009 µM	–
CCOP(=O)(OCC)C(Cc1ccc(O)cc1)c1sc2ccccc2c1Br (stereo not drawn) [Cpd 324]	54%	–	–
CC(C)OP(=O)(OC(C)C)C(Cc1cccc(O)c1)c1sc2ccccc2c1Br (stereo not drawn) [Cpd 325]	97%	0.01 µM	–
COc1ccc(CC(c2sc3ccccc3c2Br)P(=O)(OC(C)C)OC(C)C)cc1C(F)(F)F (stereo not drawn) [Cpd 326]	103% and 102%	0.086 µM and 0.051 µM	–
CC(C)OP(=O)(OC(C)C)C(Cc1ccc(F)c(C(F)(F)F)c1)c1c(Br)c2ccccc2n1C(=O)OC(C)(C)C (stereo not drawn) [Cpd 327, 3-Bromo-2-[1-(diisopropoxy-phosporyl)-2-(4-fluoro-3-trifluoromethyl-phenyl)-ethyl]-indole-1-carboxylic acid tert-butyl ester]	44%	–	–
CC(C)OP(=O)(OC(C)C)C(Cc1ccc(F)c(C(F)(F)F)c1)c1c(Br)c2ccccc2n1C (stereo not drawn) [Cpd 328, [1-(3-Bromo-1-methyl-1H-indol-2-yl)-2-(4-fluoro-3-trifluoromethyl-phenyl)-ethyl]-phosphonic acid diisopropyl ester]	–	0.193 µM	inhibition at 0.5 µM [2, 3]: 102%
CC(C)OP(=O)(OC(C)C)C(Cc1ccc(F)c(C(F)(F)F)c1)c1c(Br)c2ccccc2n1S(C)(=O)=O (stereo not drawn) [Cpd 330, [1-(3-Bromo-1-methanesulfonly-1H-indol-2-yl)-2-(4-fluoro-3-trifluoromethyl-phenyl)-ethyl]-phosphonic acid diisopropyl ester]	–	0.137 µM	–
CC(=O)n1c(C(Cc2ccc(F)c(C(F)(F)F)c2)P(=O)(OC(C)C)OC(C)C)c(Br)c2ccccc21 (stereo not drawn) [Cpd 331]	101%	0.152 µM	–
CCCS(=O)(=O)n1c(C(Cc2ccc(F)c(C(F)(F)F)c2)P(=O)(OC(C)C)OC(C)C)c(Br)c2ccccc21 (stereo not drawn) [Cpd 332]	72%	–	–
CC(C)OP(=O)(OC(C)C)/C(=C/c1ccc(F)c(F)c1)c1cc2ccccc2s1 [Cpd 333, (E)-[1-Benzo[b]thiophen-2-yl-2-(3,4-difluoro-phenyl)-vinyl]-phosphonic acid diisopropyl ester]	–	0.176 µM	inhibition at 0.5 µM [2, 3]: 95%
CC(C)OP(=O)(OC(C)C)/C(=C/c1ccc(F)c(F)c1)c1sc2ccccc2c1Br [Cpd 334, (E)-[1-(3-Bromo-benzo[b]thiophen-2-yl)-2-(3,4-difluoro-phenyl)-vinyl]-phosphonic acid diisopropyl ester]	–	0.11 µM	inhibition at 0.5 µM [2, 3]: 97%
CC(C)OP(=O)(OC(C)C)C(Cc1cc(C(F)(F)F)ccc1F)c1sc2ccccc2c1Br (stereo not drawn) [Cpd 335]	102%	0.035 µM	% Reversal ([1]; time 1 h): 0%
CC(C)OP(=O)(OC(C)C)C(Cc1ccc(C(F)(F)F)cc1)c1sc2ccccc2c1Br (stereo not drawn) [Cpd 336]	102%	0.043 µM	% Reversal ([1]; time 1 h): 64%
(R)-[1-(3-Bromo-benzo[b]thiophen-2-yl)-2-(4-fluoro-phenyl)-ethyl]-phosphonic acid diisopropyl ester [Cpd 240]	98% and 77%	–	–
(R)-[1-(3-Bromo-benzo[b]thiophen-2-yl)-2-(4-trifluoromethoxy-phenyl)-ethyl]-phosphonic acid diisopropyl ester [Cpd 237]	96% and 70%	–	–
[2-(3,4-Difluoro-phenyl)-1-(3-methyl-benzo[b]thiophene-2-yl)-ethyl]-[3-(4-methoxy-phenyl)-propyl]-phosphonic acid ethyl ester [Cpd 135]	–	0.41 µM	% I (1 μM) [2]: 90%
[2-(3,4-Difluoro-phenyl)-1-(3-methyl-benzo[b]thiophene-2-yl)-ethyl]-[3-(4-methoxy-phenyl)-propyl]-phosphonic acid ethyl ester [Cpd 136]	–	0.42 µM	% I (1 μM) [2]: 91%
[2-(3,4-Difluoro-phenyl)-1-(3-methyl-benzo[b]thiophene-2-yl)-ethyl]-methyl-phosphonic acid ethyl ester [Cpd 30]	–	0.12 µM and 0.2 µM	% I (1 μM) [2]: 100% and 99%
[2-(3,4-Difluoro-phenyl)-1-(3-methyl-benzo[b]thiophene-2-yl)-ethyl]-methyl-phosphonic acid ethyl ester [Cpd 106]	–	1.26 µM	% I (1 μM) [2]: 32%
